Where two headings read alike, the source gives them in different places.
Columns and labels:
Assay in all cases: PARP panel: ADP-ribosylation of SRPK2 using 6-a-NAD+
Type in all cases: biochemical
[1] = biological target: PARP1 (Homo sapiens, UniProt P09874)
From the text: (§1) We screened 22 against poly-ADPr PARPs (PARPs 1, 2, and PARP5b) and mono-ADPr PARPs (PARPs 3, 4, 10, 11, 14, and 15) in an assay that measures ADP-ribosylation of SRPK2 using an N^6-alkyne tagged NAD^+ (6-a-NAD^+), a clickable NAD^+ analogue.{Jiang et al., 2010, J. Am. Chem. Soc. […] The observed selectivity is most likely due to the differences in the last position of the H-Y-E catalytic triad of these enzymes versus the H-Y-I triad found in PARP10. {Hottiger et al., 2010, Trends Biochem. Sci. 35, pp. 208-219} The glutamate (E988 in PARP1) in PARPs 1-4 and PARP 5b most likely clash with the pyridiny-4-yl group at the 6-position of 22, while PARP10 contains an isoleucine (1978) at this position that can accommodate this group (FIG. 1B).

[2] = biological target: T1, PARP10cat (Homo sapiens, UniProt Q53GL7)
T1 sequence (Q53GL7 806-1025 limits assumed): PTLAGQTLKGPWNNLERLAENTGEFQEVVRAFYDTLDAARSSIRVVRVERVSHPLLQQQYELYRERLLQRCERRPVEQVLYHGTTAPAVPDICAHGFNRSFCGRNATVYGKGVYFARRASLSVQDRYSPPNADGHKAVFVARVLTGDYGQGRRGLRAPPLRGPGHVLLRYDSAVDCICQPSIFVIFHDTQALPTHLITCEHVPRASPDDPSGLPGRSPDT
From the text: as §1

[3] = biological target: T2, PARP11 (Homo sapiens, UniProt Q9NR21)
T2 sequence (Q9NR21 1-338): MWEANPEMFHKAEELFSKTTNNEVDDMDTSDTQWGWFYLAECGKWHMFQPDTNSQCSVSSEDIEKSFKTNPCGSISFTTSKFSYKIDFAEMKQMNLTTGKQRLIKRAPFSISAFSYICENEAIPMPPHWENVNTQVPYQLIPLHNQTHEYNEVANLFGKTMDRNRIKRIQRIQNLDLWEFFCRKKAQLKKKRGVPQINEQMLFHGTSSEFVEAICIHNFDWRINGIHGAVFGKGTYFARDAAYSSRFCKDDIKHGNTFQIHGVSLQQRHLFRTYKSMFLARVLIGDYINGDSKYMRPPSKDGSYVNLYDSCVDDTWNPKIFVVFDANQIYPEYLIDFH
From the text: as §1

[4] = biological target: T3, PARP14cat-wwe (Homo sapiens, UniProt Q460N5); conditions: 6-a-NAD+
T3 construct: PARP14cat-wwe
T3 sequence (Q460N5 1523-1801): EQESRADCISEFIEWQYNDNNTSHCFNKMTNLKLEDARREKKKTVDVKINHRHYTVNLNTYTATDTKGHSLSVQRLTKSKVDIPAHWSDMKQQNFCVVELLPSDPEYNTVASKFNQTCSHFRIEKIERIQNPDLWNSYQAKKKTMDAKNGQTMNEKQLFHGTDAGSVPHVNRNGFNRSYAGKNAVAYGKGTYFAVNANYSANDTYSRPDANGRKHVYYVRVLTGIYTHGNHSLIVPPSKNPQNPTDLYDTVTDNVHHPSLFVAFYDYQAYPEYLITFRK
From the text: as §1

[5] = tested on: PARP14cat-wwe; conditions: PARP14cat-wwe over PARP10cat
From the text: as §1

[6] = biological target: T4, PARP15cat (Homo sapiens, UniProt Q460N3)
T4 construct: PARP15cat
T4 sequence (Q460N3 482-678 limits assumed): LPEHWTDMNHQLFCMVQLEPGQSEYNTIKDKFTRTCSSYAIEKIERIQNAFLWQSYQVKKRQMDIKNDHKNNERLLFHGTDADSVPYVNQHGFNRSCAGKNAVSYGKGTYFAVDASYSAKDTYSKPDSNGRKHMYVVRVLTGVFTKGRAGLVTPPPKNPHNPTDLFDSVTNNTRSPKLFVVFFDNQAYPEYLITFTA
From the text: as §1

[7] = biological target: PARP2 (Homo sapiens, UniProt Q9UGN5)
Chain of PARP2 (Q9UGN5 whole entry): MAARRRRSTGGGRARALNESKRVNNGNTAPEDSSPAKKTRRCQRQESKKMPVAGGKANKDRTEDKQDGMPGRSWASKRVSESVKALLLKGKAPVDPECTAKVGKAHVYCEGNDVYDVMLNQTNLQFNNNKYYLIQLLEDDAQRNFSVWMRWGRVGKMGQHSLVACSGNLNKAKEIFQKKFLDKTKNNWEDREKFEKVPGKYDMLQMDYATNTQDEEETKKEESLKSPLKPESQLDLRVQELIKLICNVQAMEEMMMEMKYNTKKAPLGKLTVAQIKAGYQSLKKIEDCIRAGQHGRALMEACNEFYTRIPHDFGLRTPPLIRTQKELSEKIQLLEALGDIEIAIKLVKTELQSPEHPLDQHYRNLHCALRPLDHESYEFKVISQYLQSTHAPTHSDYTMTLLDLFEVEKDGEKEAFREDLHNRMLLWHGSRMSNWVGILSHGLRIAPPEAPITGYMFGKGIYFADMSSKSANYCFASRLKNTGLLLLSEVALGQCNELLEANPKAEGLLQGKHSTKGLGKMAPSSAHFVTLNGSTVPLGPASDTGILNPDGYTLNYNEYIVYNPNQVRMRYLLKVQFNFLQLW
From the text: as §1

[8] = biological target: T5, PARP3 (Homo sapiens, UniProt Q9Y6F1)
T5 sequence (Q9Y6F1 1-533): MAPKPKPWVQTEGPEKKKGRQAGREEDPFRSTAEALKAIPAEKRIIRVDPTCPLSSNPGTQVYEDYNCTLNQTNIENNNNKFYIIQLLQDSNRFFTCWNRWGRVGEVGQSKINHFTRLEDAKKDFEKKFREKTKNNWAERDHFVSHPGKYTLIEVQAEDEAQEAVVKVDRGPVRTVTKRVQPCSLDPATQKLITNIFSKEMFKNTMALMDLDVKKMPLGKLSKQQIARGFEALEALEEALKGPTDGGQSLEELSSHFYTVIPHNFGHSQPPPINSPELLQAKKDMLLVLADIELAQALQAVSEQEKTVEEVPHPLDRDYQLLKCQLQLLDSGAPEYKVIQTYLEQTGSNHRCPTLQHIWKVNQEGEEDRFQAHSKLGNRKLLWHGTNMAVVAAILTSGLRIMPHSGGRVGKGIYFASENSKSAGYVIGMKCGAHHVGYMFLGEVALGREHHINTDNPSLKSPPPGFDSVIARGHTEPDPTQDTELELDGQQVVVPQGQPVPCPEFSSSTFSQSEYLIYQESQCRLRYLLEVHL
From the text: as §1

[9] = biological target: T6, PARP4brct-cat (Homo sapiens, UniProt Q9UKK3); conditions: up to 100 μM
T6 construct: PARP4brct-cat
T6 sequence (Q9UKK3 whole entry): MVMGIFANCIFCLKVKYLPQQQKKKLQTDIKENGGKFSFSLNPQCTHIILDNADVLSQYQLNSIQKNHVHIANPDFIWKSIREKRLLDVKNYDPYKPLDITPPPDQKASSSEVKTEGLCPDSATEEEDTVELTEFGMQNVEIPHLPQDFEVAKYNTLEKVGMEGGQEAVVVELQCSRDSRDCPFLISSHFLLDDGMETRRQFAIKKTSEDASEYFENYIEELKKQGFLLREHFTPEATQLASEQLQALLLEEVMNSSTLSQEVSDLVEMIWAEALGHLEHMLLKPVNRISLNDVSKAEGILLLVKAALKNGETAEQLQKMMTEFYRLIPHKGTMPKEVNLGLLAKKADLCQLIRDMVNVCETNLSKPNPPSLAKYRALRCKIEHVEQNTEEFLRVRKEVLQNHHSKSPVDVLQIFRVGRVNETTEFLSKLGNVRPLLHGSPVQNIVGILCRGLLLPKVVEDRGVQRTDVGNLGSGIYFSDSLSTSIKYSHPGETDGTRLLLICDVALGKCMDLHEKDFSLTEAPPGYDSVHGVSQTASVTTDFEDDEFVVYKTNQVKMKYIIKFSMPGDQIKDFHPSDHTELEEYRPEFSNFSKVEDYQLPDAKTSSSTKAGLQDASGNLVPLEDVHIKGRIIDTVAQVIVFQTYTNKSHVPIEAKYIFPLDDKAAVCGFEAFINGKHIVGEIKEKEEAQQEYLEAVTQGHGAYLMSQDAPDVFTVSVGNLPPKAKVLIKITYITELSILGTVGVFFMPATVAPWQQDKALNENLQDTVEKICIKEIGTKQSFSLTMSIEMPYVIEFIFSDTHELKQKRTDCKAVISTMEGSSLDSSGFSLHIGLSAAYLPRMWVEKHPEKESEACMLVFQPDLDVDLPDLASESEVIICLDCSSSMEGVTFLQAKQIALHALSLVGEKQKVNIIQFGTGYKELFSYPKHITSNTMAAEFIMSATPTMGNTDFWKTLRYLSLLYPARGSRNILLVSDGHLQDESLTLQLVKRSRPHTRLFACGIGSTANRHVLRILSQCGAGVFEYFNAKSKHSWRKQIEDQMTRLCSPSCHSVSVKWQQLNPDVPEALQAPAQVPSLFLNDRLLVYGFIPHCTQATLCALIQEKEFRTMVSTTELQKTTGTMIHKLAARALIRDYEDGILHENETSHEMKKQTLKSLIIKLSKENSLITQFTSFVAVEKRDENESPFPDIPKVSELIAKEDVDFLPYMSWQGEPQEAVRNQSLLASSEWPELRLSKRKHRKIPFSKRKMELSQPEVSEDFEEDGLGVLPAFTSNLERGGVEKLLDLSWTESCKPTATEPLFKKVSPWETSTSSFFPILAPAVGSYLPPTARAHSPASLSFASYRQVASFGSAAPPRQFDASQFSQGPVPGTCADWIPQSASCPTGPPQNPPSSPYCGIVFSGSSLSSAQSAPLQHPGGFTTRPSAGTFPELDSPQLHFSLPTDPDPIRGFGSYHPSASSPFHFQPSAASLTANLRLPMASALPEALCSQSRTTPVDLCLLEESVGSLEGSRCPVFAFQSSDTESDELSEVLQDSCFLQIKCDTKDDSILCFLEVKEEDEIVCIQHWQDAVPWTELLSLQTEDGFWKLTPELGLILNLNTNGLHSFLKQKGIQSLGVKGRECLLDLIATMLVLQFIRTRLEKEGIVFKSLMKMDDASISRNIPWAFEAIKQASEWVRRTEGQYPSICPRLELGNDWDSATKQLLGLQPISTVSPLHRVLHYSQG
From the text: as §1

[10] = tested on: PARP4brct-cat; conditions: PARP4brct-cat over PARP10cat
From the text: as §1

[11] = biological target: T7, PARP5bcat (Homo sapiens, UniProt Q9H2K2)
T7 construct: PARP5bcat
T7 sequence (Q9H2K2 959-1164): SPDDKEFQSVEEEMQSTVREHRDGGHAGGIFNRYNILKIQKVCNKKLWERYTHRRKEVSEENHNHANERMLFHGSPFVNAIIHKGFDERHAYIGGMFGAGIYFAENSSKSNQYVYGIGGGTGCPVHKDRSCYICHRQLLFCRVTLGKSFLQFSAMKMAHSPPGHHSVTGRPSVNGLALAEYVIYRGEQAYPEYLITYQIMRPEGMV
From the text: as §1

Chain of PARP1 (P09874 whole entry): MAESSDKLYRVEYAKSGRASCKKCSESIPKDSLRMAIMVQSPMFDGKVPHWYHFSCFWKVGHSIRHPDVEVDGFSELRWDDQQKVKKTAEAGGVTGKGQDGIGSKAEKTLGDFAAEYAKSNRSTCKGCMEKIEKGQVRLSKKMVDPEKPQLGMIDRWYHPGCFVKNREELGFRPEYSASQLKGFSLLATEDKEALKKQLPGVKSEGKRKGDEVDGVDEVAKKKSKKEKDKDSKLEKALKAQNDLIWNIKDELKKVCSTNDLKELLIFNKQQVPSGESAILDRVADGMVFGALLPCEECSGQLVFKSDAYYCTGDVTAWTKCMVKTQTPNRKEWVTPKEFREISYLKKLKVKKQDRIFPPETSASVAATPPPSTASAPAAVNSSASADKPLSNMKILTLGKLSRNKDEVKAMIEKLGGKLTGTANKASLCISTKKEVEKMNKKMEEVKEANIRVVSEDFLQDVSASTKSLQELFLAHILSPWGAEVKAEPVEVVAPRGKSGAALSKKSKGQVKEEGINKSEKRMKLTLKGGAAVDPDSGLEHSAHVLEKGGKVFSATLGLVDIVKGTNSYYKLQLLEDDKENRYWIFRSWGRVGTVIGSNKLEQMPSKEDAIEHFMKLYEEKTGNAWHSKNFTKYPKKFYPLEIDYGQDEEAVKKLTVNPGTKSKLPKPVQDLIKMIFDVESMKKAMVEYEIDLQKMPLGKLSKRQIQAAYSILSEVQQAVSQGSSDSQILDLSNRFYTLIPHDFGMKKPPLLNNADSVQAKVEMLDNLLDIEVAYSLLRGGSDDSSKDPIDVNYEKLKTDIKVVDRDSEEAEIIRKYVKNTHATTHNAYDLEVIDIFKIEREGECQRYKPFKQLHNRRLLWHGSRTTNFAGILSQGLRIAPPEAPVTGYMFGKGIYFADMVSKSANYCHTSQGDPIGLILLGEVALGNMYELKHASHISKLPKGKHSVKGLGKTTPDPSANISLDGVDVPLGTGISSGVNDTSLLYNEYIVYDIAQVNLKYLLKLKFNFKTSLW

## Cc1c(-c2ccnc(C(F)(F)F)c2)ccc2c1CCNC2=O [Compound 22, 5-methyl-6-(2-(trifluoromethyl)pyridin-4-yl)-3,4-dihydroisoquinolin-1(2H)-one]
[1]; 6-a-NAD+
  IC50: > 100 µM
[1]; PARP1 over PARP10cat
  PARP/PARP10: >>37
[1]; up to 100 μM
  inhibition of PARP1: does not inhibit
[2]; 6-a-NAD+
  selectivity for PARP10 over PARPs 1-4 and PARP 5b: greater than 37 fold
[2]; 6-a-NAD+, read-out: PARP10cat IC50
  IC50: 2.7 µM
[2]; 6-a-NAD+, read-out: PARP10cat pIC50 ± S.E.M. (converted)
  IC50: 2.75 µM
[2]; PARP10cat over PARP10cat
  PARP/PARP10: 1
[3]; 6-a-NAD+
  IC50: 62.9 µM
[3]; PARP11 over PARP10cat
  PARP/PARP10: 23
[4]
  IC50: 60.5 µM
  PARP14cat-wwe pIC50 ± S.E.M.: 4.22 ± 0.04
[5]
  PARP/PARP10: 22
[6]; 6-a-NAD+
  IC50: 62.9 µM
  PARP15cat pIC50 ± S.E.M.: 4.20 ± 0.05
[6]; PARP15cat over PARP10cat
  PARP/PARP10: 23
[7]; 6-a-NAD+
  IC50: > 100 µM
[7]; PARP2 over PARP10cat
  PARP/PARP10: >37
[7]; up to 100 μM
  inhibition of PARP2: does not inhibit
[8]; 6-a-NAD+
  IC50: > 100 µM
[8]; PARP3 over PARP10cat
  PARP/PARP10: >>37
[8]; up to 100 μM
  inhibition of PARP3: does not inhibit
[9]
  inhibition of PARP4: does not inhibit
[10]
  PARP/PARP10: >37
[11]; 6-a-NAD+
  IC50: > 100 µM
[11]; PARP5bcat over PARP10cat
  PARP/PARP10: >>37
[11]; up to 100 μM
  inhibition of PARP 5b: does not inhibit

Source: patent US10899733B2, “Inhibitors of PARPs that catalyze mono-ADP-ribosylation” (OREGON HEALTH & SCIENCE UNIVERSITY, priority 2017, dated 2021)
